In publication PMC12586182 (Frontiers in Oncology, 2025):

Columns and labels:
EPHB2 = molecular target: T1, EPHB2 (Homo sapiens, UniProt P29323); test: Kinase panel profiling at 1 µmol/L (mobility shift assay, Carna); assay type: biochemical; conditions: 1 µmol/L of BTK inhibitor
T1 construct: purchased Carna Biosciences
T1 sequence (P29323 19-1055): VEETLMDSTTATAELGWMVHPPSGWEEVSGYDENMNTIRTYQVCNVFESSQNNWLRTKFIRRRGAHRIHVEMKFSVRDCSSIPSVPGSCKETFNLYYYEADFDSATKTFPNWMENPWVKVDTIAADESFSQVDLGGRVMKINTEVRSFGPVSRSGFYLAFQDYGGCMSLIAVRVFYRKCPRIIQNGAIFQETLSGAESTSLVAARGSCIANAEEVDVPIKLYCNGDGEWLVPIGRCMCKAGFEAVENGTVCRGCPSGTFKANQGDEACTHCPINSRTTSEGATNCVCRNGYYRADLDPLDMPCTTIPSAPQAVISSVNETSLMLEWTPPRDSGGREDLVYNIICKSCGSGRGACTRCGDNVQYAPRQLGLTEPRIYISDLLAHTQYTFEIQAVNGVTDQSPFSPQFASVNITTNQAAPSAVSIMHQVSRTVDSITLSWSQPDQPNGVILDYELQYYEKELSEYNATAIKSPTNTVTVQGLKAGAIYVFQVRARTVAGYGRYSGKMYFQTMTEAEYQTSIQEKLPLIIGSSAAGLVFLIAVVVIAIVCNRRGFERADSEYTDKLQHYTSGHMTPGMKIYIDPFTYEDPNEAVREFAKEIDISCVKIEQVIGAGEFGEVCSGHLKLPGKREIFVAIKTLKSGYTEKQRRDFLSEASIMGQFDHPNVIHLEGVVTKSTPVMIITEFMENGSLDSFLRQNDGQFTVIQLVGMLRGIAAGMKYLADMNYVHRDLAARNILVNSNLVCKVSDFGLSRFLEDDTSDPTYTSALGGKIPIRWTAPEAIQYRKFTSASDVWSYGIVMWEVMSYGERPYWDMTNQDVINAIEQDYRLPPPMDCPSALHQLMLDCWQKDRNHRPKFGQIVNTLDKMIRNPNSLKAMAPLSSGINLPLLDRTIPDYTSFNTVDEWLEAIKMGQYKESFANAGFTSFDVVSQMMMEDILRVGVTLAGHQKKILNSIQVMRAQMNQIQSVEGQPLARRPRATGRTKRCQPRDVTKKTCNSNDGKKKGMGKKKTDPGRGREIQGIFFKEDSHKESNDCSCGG

PYK2 = molecular target: T2, PYK2 (Homo sapiens, UniProt Q14289); test: as above; assay type: biochemical; conditions: 1 µmol/L of BTK inhibitor
T2 construct: purchased Carna Biosciences

p70S6Kβ = molecular target: T3, p70S6Kβ (Homo sapiens, UniProt Q9UBS0); test: as above; assay type: biochemical; conditions: 1 µmol/L of BTK inhibitor
T3 construct: purchased Carna Biosciences

JAK2 = molecular target: T4, JAK2 (Homo sapiens, UniProt O60674); test: as above; assay type: biochemical; conditions: 1 µmol/L of BTK inhibitor
T4 construct: purchased Carna Biosciences

CDC2/CycB1 = molecular target: T5, CDC2/CycB1 (Homo sapiens, UniProt P06493); test: as above; assay type: biochemical; conditions: 1 µmol/L of BTK inhibitor
T5 construct: purchased Carna Biosciences

SGK = molecular target: T6, SGK (Homo sapiens, UniProt O00141); test: as above; assay type: biochemical; conditions: 1 µmol/L of BTK inhibitor
T6 construct: purchased Carna Biosciences
T6 sequence (O00141 1-431): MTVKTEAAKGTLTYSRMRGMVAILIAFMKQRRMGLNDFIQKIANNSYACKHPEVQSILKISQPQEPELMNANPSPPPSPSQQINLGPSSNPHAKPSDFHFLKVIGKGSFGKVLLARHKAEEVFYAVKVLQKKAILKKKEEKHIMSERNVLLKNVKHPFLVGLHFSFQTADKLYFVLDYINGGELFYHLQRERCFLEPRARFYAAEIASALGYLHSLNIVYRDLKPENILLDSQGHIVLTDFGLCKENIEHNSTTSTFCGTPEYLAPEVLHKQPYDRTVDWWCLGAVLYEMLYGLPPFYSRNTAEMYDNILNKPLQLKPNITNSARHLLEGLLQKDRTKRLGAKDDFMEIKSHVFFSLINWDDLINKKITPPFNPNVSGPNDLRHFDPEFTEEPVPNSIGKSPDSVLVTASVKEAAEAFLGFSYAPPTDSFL

EPHA6 = molecular target: T7, EPHA6 (Homo sapiens, UniProt Q9UF33); test: as above; assay type: biochemical; conditions: 1 µmol/L of BTK inhibitor
T7 construct: purchased Carna Biosciences
T7 sequence (Q9UF33 23-1036): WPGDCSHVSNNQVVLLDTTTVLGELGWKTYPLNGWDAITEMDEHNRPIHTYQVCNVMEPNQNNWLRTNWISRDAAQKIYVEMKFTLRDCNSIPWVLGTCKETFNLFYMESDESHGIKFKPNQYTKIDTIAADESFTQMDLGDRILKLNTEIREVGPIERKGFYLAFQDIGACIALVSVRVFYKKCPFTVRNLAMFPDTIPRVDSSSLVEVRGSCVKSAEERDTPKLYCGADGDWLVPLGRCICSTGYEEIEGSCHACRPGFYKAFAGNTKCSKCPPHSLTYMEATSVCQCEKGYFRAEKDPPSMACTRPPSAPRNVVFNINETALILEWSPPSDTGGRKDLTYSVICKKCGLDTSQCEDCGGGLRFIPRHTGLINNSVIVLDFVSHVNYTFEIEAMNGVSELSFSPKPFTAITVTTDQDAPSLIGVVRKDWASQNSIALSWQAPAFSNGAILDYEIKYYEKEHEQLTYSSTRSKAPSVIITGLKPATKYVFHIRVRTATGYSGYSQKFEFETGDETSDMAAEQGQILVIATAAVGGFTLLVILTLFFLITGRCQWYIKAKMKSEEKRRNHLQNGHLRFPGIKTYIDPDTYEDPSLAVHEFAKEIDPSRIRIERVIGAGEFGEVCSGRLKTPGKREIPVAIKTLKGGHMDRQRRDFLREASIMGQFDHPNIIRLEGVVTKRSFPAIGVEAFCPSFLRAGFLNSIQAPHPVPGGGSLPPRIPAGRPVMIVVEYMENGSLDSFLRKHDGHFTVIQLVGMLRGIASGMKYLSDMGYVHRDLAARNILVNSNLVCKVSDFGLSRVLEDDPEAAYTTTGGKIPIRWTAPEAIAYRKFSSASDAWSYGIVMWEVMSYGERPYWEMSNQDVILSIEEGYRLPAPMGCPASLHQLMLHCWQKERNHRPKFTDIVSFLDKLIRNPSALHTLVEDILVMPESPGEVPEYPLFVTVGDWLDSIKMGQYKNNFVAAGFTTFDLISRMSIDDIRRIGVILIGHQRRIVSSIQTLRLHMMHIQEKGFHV

MELK = molecular target: T8, MELK (Homo sapiens, UniProt Q14680); test: as above; assay type: biochemical; conditions: 1 µmol/L of BTK inhibitor
T8 construct: purchased Carna Biosciences

ERK2 = ERK2 (Homo sapiens, UniProt P28482); test: Kinase enzyme activity assay (mobility shift assay, Carna); conditions: for Percentage inhibition of kinase enzyme activity: Erk2, 1 µmol/L of BTK inhibitor
CHK2 = molecular target: T9, CHK2 (Homo sapiens, UniProt O96017); test: Kinase panel profiling at 1 µmol/L (mobility shift assay, Carna); assay type: biochemical; conditions: 1 µmol/L of BTK inhibitor
T9 construct: purchased Carna Biosciences
T9 sequence (O96017 whole entry): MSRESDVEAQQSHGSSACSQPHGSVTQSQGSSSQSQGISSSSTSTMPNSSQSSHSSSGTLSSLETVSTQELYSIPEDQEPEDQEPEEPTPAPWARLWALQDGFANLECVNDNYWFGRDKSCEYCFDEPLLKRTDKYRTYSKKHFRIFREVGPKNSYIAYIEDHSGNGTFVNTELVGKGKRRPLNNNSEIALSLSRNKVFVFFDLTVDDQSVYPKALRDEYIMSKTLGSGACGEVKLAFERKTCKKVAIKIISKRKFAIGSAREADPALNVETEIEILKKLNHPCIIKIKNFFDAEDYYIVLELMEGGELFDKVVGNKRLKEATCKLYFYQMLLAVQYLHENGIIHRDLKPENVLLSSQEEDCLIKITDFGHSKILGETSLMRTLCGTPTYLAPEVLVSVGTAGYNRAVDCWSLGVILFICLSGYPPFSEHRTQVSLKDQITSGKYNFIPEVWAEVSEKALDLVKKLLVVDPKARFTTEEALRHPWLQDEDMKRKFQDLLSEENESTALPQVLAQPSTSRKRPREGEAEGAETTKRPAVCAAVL

T8 sequence (Q14680 whole entry): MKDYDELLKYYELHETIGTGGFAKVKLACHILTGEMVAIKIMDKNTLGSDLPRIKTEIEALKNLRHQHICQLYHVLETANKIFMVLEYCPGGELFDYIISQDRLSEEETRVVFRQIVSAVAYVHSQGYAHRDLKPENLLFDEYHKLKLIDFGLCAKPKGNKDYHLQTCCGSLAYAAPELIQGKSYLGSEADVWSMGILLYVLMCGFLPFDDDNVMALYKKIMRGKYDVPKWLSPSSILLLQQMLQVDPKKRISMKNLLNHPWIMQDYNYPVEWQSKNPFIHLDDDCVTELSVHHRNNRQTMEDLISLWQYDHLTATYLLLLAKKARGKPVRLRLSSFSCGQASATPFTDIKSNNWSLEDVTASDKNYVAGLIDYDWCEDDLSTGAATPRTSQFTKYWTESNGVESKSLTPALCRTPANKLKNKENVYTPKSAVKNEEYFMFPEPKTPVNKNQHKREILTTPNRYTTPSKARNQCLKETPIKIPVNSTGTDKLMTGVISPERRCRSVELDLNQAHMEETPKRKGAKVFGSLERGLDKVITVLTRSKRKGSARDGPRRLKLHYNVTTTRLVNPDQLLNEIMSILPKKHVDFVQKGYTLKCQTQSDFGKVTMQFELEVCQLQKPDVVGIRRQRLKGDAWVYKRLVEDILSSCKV
T3 sequence (Q9UBS0 whole entry): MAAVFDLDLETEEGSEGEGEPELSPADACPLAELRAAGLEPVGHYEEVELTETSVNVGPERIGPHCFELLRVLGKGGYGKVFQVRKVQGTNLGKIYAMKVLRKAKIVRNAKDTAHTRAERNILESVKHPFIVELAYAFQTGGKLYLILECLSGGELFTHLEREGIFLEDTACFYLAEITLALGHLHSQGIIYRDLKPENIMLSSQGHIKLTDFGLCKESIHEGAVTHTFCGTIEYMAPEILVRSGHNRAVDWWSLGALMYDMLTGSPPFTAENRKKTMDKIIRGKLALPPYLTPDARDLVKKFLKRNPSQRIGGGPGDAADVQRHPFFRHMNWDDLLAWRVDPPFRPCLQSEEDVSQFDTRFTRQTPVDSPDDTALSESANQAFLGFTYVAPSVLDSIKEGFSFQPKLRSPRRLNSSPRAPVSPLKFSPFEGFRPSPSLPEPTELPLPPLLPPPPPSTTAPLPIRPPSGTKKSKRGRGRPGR
T5 sequence (P06493 whole entry): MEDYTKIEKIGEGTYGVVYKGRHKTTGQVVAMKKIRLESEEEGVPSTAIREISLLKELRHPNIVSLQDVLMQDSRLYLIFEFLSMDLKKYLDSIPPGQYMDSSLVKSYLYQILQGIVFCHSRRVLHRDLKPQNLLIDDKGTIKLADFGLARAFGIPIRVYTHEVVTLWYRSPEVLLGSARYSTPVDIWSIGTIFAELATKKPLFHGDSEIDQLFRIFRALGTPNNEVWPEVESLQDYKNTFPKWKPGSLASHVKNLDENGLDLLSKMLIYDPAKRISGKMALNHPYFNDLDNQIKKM
T5 sequence (P14635 whole entry partner): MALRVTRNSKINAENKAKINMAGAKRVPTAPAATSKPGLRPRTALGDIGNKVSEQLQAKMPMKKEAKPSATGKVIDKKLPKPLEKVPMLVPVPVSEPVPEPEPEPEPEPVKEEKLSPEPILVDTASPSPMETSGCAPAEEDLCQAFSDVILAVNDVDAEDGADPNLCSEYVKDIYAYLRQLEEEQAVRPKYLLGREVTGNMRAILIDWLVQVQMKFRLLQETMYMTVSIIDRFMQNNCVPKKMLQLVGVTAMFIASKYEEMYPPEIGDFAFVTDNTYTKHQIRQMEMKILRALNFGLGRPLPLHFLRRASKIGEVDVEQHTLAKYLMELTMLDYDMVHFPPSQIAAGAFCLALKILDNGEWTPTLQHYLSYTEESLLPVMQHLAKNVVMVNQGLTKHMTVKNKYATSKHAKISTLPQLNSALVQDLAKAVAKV
T4 sequence (O60674 whole entry): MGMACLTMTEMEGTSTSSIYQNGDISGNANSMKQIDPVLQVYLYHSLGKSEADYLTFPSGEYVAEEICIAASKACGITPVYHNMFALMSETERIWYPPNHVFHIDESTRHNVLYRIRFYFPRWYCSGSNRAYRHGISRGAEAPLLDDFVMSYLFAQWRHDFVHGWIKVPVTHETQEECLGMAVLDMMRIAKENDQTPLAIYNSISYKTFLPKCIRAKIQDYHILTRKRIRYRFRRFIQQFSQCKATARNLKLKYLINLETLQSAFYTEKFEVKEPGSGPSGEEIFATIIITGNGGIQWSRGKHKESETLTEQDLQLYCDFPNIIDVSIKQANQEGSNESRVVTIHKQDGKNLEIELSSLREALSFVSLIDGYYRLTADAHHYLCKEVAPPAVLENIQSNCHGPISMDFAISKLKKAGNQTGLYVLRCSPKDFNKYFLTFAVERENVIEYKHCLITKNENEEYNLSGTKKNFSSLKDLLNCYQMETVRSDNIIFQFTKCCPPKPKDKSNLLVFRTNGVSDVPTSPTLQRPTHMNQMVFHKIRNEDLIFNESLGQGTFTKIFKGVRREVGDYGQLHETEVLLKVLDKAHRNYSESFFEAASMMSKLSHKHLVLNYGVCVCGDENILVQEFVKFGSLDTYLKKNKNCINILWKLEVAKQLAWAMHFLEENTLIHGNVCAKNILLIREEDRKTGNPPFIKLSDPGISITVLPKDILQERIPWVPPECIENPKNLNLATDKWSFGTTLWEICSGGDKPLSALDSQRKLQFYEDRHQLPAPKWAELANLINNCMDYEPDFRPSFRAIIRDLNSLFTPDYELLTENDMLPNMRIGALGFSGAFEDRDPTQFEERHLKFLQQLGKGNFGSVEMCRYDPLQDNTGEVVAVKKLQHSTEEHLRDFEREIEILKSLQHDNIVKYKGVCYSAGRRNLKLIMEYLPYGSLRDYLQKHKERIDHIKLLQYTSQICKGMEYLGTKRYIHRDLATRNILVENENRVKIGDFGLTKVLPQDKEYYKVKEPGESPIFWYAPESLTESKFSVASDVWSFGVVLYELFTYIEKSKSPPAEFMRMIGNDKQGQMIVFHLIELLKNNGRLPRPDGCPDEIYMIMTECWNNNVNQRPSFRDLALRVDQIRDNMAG
T2 sequence (Q14289 whole entry): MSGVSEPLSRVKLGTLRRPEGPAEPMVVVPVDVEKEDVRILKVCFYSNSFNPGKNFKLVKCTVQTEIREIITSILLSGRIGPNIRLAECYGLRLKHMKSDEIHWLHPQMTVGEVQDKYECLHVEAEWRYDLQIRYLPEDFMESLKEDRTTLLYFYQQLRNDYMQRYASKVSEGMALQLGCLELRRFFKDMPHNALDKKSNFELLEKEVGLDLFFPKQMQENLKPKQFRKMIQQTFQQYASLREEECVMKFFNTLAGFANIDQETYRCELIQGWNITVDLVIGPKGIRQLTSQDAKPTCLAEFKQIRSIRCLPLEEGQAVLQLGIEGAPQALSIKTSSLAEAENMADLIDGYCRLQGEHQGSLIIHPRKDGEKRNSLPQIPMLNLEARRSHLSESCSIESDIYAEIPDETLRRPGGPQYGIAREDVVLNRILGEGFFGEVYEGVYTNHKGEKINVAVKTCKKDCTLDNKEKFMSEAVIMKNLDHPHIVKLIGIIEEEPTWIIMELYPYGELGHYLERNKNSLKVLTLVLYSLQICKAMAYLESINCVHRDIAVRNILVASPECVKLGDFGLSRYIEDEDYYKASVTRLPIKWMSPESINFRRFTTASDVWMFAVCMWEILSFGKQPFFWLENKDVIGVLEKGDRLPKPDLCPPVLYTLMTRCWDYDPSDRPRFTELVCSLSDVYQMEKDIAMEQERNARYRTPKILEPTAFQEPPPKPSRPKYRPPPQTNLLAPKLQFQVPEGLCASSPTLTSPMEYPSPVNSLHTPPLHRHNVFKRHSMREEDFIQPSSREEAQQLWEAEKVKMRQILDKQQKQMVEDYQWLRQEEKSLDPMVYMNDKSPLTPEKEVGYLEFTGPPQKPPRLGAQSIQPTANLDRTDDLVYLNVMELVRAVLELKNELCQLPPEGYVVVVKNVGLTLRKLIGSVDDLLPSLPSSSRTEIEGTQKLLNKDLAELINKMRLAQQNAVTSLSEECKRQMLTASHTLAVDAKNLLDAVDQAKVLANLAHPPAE
Chain of ERK2 (P28482 whole entry): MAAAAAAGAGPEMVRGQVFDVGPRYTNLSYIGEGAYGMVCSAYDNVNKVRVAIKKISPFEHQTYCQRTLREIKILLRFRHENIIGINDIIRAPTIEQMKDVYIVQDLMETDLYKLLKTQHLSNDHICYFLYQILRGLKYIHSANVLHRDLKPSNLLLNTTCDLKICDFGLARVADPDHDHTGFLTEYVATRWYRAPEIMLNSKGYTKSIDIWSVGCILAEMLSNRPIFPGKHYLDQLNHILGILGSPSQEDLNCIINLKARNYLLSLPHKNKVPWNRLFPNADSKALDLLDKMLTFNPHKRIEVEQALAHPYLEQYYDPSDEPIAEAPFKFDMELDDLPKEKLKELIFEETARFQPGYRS

CC#CC(=O)N1CCC[C@H]1c1nc(-c2ccc(C(=O)Nc3ccccn3)cc2)c2c(N)nccn12 [acalabrutinib]
Percentage inhibition of kinase enzyme activity (EPHB2): -0.11%
Percentage inhibition of kinase enzyme activity (PYK2): -3.55%
Percentage inhibition of kinase enzyme activity (p70S6Kβ): -14.17%
Percentage inhibition of kinase enzyme activity (JAK2): -9.14%
Percentage inhibition of kinase enzyme activity (CDC2/CycB1): -0.40%
Percentage inhibition of kinase enzyme activity (SGK): -5.11%
Percentage inhibition of kinase enzyme activity (EPHA6): -2.37%
Percentage inhibition of kinase enzyme activity (MELK): -0.54%
Percentage inhibition of kinase enzyme activity (ERK2): -2.02%
Percentage inhibition of kinase enzyme activity (CHK2): -5.77%

C=CC(=O)N1CCC[C@@H](n2nc(-c3ccc(Oc4ccccc4)cc3)c3c(N)ncnc32)C1 [ibrutinib]
Percentage inhibition of kinase enzyme activity (EPHB2): 27.83%
Percentage inhibition of kinase enzyme activity (PYK2): 3.37%
Percentage inhibition of kinase enzyme activity (p70S6Kβ): 0.87%
Percentage inhibition of kinase enzyme activity (JAK2): 0.41%
Percentage inhibition of kinase enzyme activity (CDC2/CycB1): -1.03%
Percentage inhibition of kinase enzyme activity (SGK): -21.37%
Percentage inhibition of kinase enzyme activity (EPHA6): 92.64%
Percentage inhibition of kinase enzyme activity (MELK): 8.08%
Percentage inhibition of kinase enzyme activity (ERK2): -6.90%
Percentage inhibition of kinase enzyme activity (CHK2): 14.14%

O=C(c1ccc(Oc2ccccc2)cc1Cl)c1c[nH]c2ncnc(N[C@@H]3CC[C@@H](CO)OC3)c12 [nemtabrutinib]
Percentage inhibition of kinase enzyme activity (EPHB2): 48.93%
Percentage inhibition of kinase enzyme activity (PYK2): 100.08%
Percentage inhibition of kinase enzyme activity (p70S6Kβ): 4.30%
Percentage inhibition of kinase enzyme activity (JAK2): 14.34%
Percentage inhibition of kinase enzyme activity (CDC2/CycB1): -7.65%
Percentage inhibition of kinase enzyme activity (SGK): 1.16%
Percentage inhibition of kinase enzyme activity (EPHA6): 49.03%
Percentage inhibition of kinase enzyme activity (MELK): 81.25%
IC50 (ERK2): 0.505 µM
Inhibition of ERK2 (ERK2): did not inhibit
Percentage inhibition of kinase enzyme activity (ERK2): 67.16%
Percentage inhibition of kinase enzyme activity (CHK2): 49.89%

COc1ccc(F)cc1C(=O)NCc1ccc(-c2nn([C@@H](C)C(F)(F)F)c(N)c2C(N)=O)cc1 [pirtobrutinib]
Percentage inhibition of kinase enzyme activity (EPHB2): 6.14%
Percentage inhibition of kinase enzyme activity (PYK2): 7.26%
Percentage inhibition of kinase enzyme activity (p70S6Kβ): 10.01%
Percentage inhibition of kinase enzyme activity (JAK2): 0.45%
Percentage inhibition of kinase enzyme activity (CDC2/CycB1): -10.48%
Percentage inhibition of kinase enzyme activity (SGK): 3.55%
Percentage inhibition of kinase enzyme activity (EPHA6): 6.36%
Percentage inhibition of kinase enzyme activity (MELK): -5.13%
Percentage inhibition of kinase enzyme activity (ERK2): 6.64%
Percentage inhibition of kinase enzyme activity (CHK2): 7.28%

C=CC(=O)N1CCC([C@@H]2CCNc3c(C(N)=O)c(-c4ccc(Oc5ccccc5)cc4)nn32)CC1 [zanubrutinib]
Percentage inhibition of kinase enzyme activity (EPHB2): -1.32%
Percentage inhibition of kinase enzyme activity (PYK2): 16.35%
Percentage inhibition of kinase enzyme activity (JAK2): 9.66%
Percentage inhibition of kinase enzyme activity (SGK): -0.67%
Percentage inhibition of kinase enzyme activity (EPHA6): 0.76%
